Source: US20250145665A1, “MACROCYCLIC PEPTIDES USEFUL AS MODULATORS OF TNF ALPHA” (Bristol-Myers Squibb Company, priority 2023, published 2025)
Starred links: 1 amine or outer side, 2 acyl side, 3 side chain; linkers in the order of their positions; H or OH if unused. Positions of bridges follow the written chain, without caps; N, C: chain ends. Non-standard residues stand in square brackets, D forms with d. Residues, ends and D or L forms follow the SMILES beside them. ξ: configuration not given here. Bip(4'-COOH) = N[C@@H](Cc1ccc(-c2ccc(C(=O)O)cc2)cc1)C(=O)O; Bip(4'-NHAc) = CC(=O)Nc1ccc(-c2ccc(C[C@H](N)C(=O)O)cc2)cc1; Phe(3-CH2NH2) = O=C([C@H](Cc1cccc(CN[*:3])c1)N[*:1])[*:2]; Ala(morpholin-4-yl) = N[C@@H](CN1CCOCC1)C(=O)O; Phe(3-CONH2) = NC(=O)c1cccc(C[C@H](N)C(=O)O)c1; Bip = N[C@@H](Cc1ccc(-c2ccccc2)cc1)C(=O)O; Ala(2-furyl) = N[C@@H](Cc1ccco1)C(=O)O; Phe(2-Me) = Cc1ccccc1C[C@H](N)C(=O)O; 2Pal = N[C@@H](Cc1ccccn1)C(=O)O; 2Thi = N[C@@H](Cc1cccs1)C(=O)O; Cha = N[C@@H](CC1CCCCC1)C(=O)O; Tle = CC(C)(C)[C@H](N)C(=O)O; ξIle = CC[C@H](C)C(N)C(=O)O; Sar = CNCC(=O)O

The compounds below were run against TNFα (Homo sapiens, UniProt P01375) (assay: TNF-Induced HEK-Blue Assay). Settings: HEK-Blue-CD40L cells, NF-kB-driven secreted alkaline phosphatase reporter; TNFα 0.5 ng/ml; 18 h; read-out: TNF induced HEK-Blue assay IC50 value.
Sequence of TNFα (P01375 77-233 limits assumed): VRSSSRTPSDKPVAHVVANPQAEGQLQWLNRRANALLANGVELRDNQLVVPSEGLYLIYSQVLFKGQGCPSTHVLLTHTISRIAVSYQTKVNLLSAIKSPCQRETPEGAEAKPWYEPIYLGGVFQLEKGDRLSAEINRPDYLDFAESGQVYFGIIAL
Assay type: cell-based
Procedure: TNFα (final concentration 0.5 ng/ml) or CD40L (final concentration 30 ng/ml) in assay buffer [DMEM, 4.5 g/l glucose (Gibco, Cat. 21063-029), 10% FBS (Sigma, F4135), 1% Penicillin-Streptomycin (Gibco, Cat. 15140-122), 1% Anti-Anti (Gibco, Cat. 15240-112) and 2 mM L-glutamine (Gibco, Cat. 25030-081)] was then added to the assay plate. After a 30 minute pre-incubation at 37° C. and 5% CO2, HEK-Blue™-CD40L cells (INVIVOGEN, Cat. Code hkb-cd40) containing a NF-kB-driven secreted alkaline phosphatase reporter gene were seeded into the assay plate at a density of 20,000 cells per well. This plate was then incubated for 18 h at 37° C. and 5% CO2. Secreted alkaline phosphatase expression was measured using QUANTI-Blue™ (INVIVOGEN, Cat. Code rep-qb1) according to manufacturer's specifications and the assay plate was read on a PerkinElmer Envision at 620 nm.
IC50 values were determined after correcting for background [(sample read-mean of low control)/(mean of high control-mean of low control)] where by the low control is DMSO without stimulation and high control is DMSO with stimulation.

Row | IC50 | Compound
1 | 50 to 200 nM | CC(=O)Nc1ccc(-c2ccc(C[C@@H]3NC(=O)[C@H](Cc4ccc(-c5ccc(C(=O)O)cc5)cc4)NC(=O)[C@H](CC4CCCCC4)NC(=O)CSC[C@@H](C(=O)NCC(N)=O)NC(=O)[C@H](CC(C)C)NC(=O)[C@H](Cc4cnc[nH]4)NC(=O)[C@H](C(C)C)NC(=O)[C@@H]4CCCN4C(=O)[C@H](CC(N)=O)NC(=O)[C@@H](CCCNC(=N)N)NC(=O)[C@H](CC(=O)O)NC(=O)[C@H](Cc4ccc(O)cc4)NC(=O)CN(C)C3=O)cc2)cc1 [Example 248] ({CH2CO}-[Cha][Bip(4'-COOH)][Bip(4'-NHAc)][Sar]YD[dR]NPVHLCG-NH2; thioether N-13)
2 | 50 to 200 nM | CC(=O)Nc1ccc(-c2ccc(C[C@@H]3NC(=O)[C@H](Cc4ccc(-c5ccccc5)cc4)NC(=O)[C@H](CC4CCCCC4)NC(=O)CSC[C@@H](C(=O)N[C@@H](CCC(=O)O)C(N)=O)NC(=O)[C@H](CC(C)C)NC(=O)[C@H](Cc4cnc[nH]4)NC(=O)[C@H](C(C)C)NC(=O)[C@@H]4CCCN4C(=O)[C@H](C(C)C)NC(=O)[C@@H](CCCNC(=N)N)NC(=O)[C@H](CC(=O)O)NC(=O)[C@H](Cc4ccc(O)cc4)NC(=O)CN(C)C3=O)cc2)cc1 [Example 249] ({CH2CO}-[Cha][Bip][Bip(4'-NHAc)][Sar]YD[dR]VPVHLCE-NH2; thioether N-13)
3 | < 50 nM | CC(=O)Nc1ccc(-c2ccc(C[C@@H]3NC(=O)[C@H](Cc4ccc(-c5ccc(C(=O)O)cc5)cc4)NC(=O)[C@H](CC4CCCCC4)NC(=O)CSC[C@@H](C(=O)NCC(N)=O)NC(=O)[C@H](CC(C)C)NC(=O)[C@H](Cc4cccc(C(N)=O)c4)NC(=O)[C@H](C(C)C)NC(=O)[C@@H]4CCCN4C(=O)[C@H](C(C)C)NC(=O)[C@@H](CCCNC(=N)N)NC(=O)[C@H](CC(=O)O)NC(=O)[C@H](Cc4ccccn4)NC(=O)CN(C)C3=O)cc2)cc1 [Example 251] ({CH2CO}-[Cha][Bip(4'-COOH)][Bip(4'-NHAc)][Sar][2Pal]D[dR]VPV[Phe(3-CONH2)]LCG-NH2; thioether N-13)
4 | < 50 nM | CC(=O)Nc1ccc(-c2ccc(C[C@@H]3NC(=O)[C@H](Cc4ccc(-c5ccc(C(=O)O)cc5)cc4)NC(=O)[C@H](CC4CCCCC4)NC(=O)CSC[C@@H](C(=O)NCC(N)=O)NC(=O)[C@H](CC(C)C)NC(=O)[C@H](Cc4cccc(C(N)=O)c4)NC(=O)[C@H](C(C)C)NC(=O)[C@@H]4CCCN4C(=O)[C@H](C(C)C)NC(=O)[C@@H](CCCNC(=N)N)NC(=O)[C@H](CC(=O)O)NC(=O)[C@H](Cc4ccc(O)cc4)NC(=O)CN(C)C3=O)cc2)cc1 [Example 252] ({CH2CO}-[Cha][Bip(4'-COOH)][Bip(4'-NHAc)][Sar]YD[dR]VPV[Phe(3-CONH2)]LCG-NH2; thioether N-13)
5 | < 50 nM | CC[C@H](C)[C@@H]1NC(=O)[C@@H](CCCNC(=N)N)NC(=O)[C@H](CC(=O)O)NC(=O)[C@H](Cc2cnc[nH]2)NC(=O)CN(C)C(=O)[C@H](Cc2ccc(-c3ccc(NC(C)=O)cc3)cc2)NC(=O)[C@H](Cc2ccc(-c3ccc(C(=O)O)cc3)cc2)NC(=O)[C@H](CC2CCCCC2)NC(=O)CSC[C@@H](C(=O)NCC(N)=O)NC(=O)[C@H](CC(C)C)NC(=O)[C@H](Cc2cnc[nH]2)NC(=O)[C@H](C(C)C)NC(=O)[C@@H]2CCCN2C1=O [Example 257] ({CH2CO}-[Cha][Bip(4'-COOH)][Bip(4'-NHAc)][Sar]HD[dR]IPVHLCG-NH2; thioether N-13)
6 | < 50 nM | CC(=O)Nc1ccc(-c2ccc(C[C@@H]3NC(=O)[C@H](Cc4ccc(-c5ccccc5)cc4)NC(=O)[C@H](C(C)(C)C)NC(=O)CSC[C@@H](C(=O)NCC(N)=O)NC(=O)[C@H](CC(C)C)NC(=O)[C@H](Cc4cccs4)NC(=O)[C@H](C(C)C)NC(=O)[C@@H]4CCCN4C(=O)[C@H](C(C)C)NC(=O)[C@@H](CCCNC(=N)N)NC(=O)[C@H](CC(=O)O)NC(=O)[C@H](Cc4ccc(O)cc4)NC(=O)CN(C)C3=O)cc2)cc1 [Example 259] ({CH2CO}-[Tle][Bip][Bip(4'-NHAc)][Sar]YD[dR]VPV[2Thi]LCG-NH2; thioether N-13)
7 | < 50 nM | CC[C@H](C)[C@@H]1NC(=O)[C@@H](CCCNC(=N)N)NC(=O)[C@H](CC(=O)O)NC(=O)[C@H](Cc2ccc(O)cc2)NC(=O)CN(C)C(=O)[C@H](Cc2ccc(-c3ccc(NC(C)=O)cc3)cc2)NC(=O)[C@H](Cc2ccc(-c3ccccc3)cc2)NC(=O)[C@H](C(C)(C)C)NC(=O)CSC[C@@H](C(=O)NCC(N)=O)NC(=O)[C@H](CC(C)C)NC(=O)[C@H](Cc2cccs2)NC(=O)[C@H](C(C)C)NC(=O)[C@@H]2CCCN2C1=O [Example 260] ({CH2CO}-[Tle][Bip][Bip(4'-NHAc)][Sar]YD[dR]IPV[2Thi]LCG-NH2; thioether N-13)
8 | < 50 nM | CC(=O)Nc1ccc(-c2ccc(C[C@@H]3NC(=O)[C@H](Cc4ccc(-c5ccc(C(=O)O)cc5)cc4)NC(=O)[C@H](C(C)(C)C)NC(=O)CSC[C@@H](C(=O)NCC(N)=O)NC(=O)[C@H](CC(C)C)NC(=O)[C@H](Cc4cnc[nH]4)NC(=O)[C@H](C(C)C)NC(=O)[C@@H]4CCCN4C(=O)[C@H](C(C)C)NC(=O)[C@@H](CCCNC(=N)N)NC(=O)[C@H](CC(=O)O)NC(=O)[C@H](Cc4ccccc4)NC(=O)CN(C)C3=O)cc2)cc1 [Example 261] ({CH2CO}-[Tle][Bip(4'-COOH)][Bip(4'-NHAc)][Sar]FD[dR]VPVHLCG-NH2; thioether N-13)

More lines, now with the values behind:

Row | Compound | IC50
9 | CC(=O)Nc1ccc(-c2ccc(C[C@@H]3NC(=O)[C@H](Cc4ccc(-c5ccc(C(=O)O)cc5)cc4)NC(=O)[C@H](CC4CCCCC4)NC(=O)CSC[C@@H](C(=O)NCC(N)=O)NC(=O)[C@H](CC(C)C)NC(=O)[C@H](Cc4cccs4)NC(=O)[C@H](C(C)C)NC(=O)[C@@H]4CCCN4C(=O)[C@H](C(C)C)NC(=O)[C@@H](CCCNC(=N)N)NC(=O)[C@H](CC(=O)O)NC(=O)[C@@H]4CCCN4C(=O)CN(C)C3=O)cc2)cc1 [Example 245] ({CH2CO}-[Cha][Bip(4'-COOH)][Bip(4'-NHAc)][Sar]PD[dR]VPV[2Thi]LCG-NH2; thioether N-13) | 200 to 2000 nM
10 | CC(=O)Nc1ccc(-c2ccc(C[C@@H]3NC(=O)[C@H](Cc4ccc(-c5ccc(C(=O)O)cc5)cc4)NC(=O)[C@H](CC4CCCCC4)NC(=O)CSC[C@@H](C(=O)NCC(N)=O)NC(=O)[C@H](CC(C)C)NC(=O)[C@H](Cc4ccco4)NC(=O)[C@H](C(C)C)NC(=O)[C@@H]4CCCN4C(=O)[C@H](C(C)C)NC(=O)[C@@H](CCCNC(=N)N)NC(=O)[C@H](CC(=O)O)NC(=O)[C@@H]4CCCN4C(=O)CN(C)C3=O)cc2)cc1 [Example 246] ({CH2CO}-[Cha][Bip(4'-COOH)][Bip(4'-NHAc)][Sar]PD[dR]VPV[Ala(2-furyl)]LCG-NH2; thioether N-13) | 50 to 200 nM
11 | CC(=O)Nc1ccc(-c2ccc(C[C@@H]3NC(=O)[C@H](Cc4ccc(-c5ccc(C(=O)O)cc5)cc4)NC(=O)[C@H](CC4CCCCC4)NC(=O)CSC[C@@H](C(=O)NCC(N)=O)NC(=O)[C@H](CC(C)C)NC(=O)[C@H](Cc4ccc(O)cc4)NC(=O)[C@H](C(C)C)NC(=O)[C@@H]4CCCN4C(=O)[C@H](CC(N)=O)NC(=O)[C@@H](CCCNC(=N)N)NC(=O)[C@H](CC(=O)O)NC(=O)[C@@H]4CCCN4C(=O)CN(C)C3=O)cc2)cc1 [Example 247] ({CH2CO}-[Cha][Bip(4'-COOH)][Bip(4'-NHAc)][Sar]PD[dR]NPVYLCG-NH2; thioether N-13) | 50 to 200 nM
12 | CC(=O)Nc1ccc(-c2ccc(C[C@@H]3NC(=O)[C@H](Cc4ccc(-c5ccccc5)cc4)NC(=O)[C@H](CC4CCCCC4)NC(=O)CSC[C@@H](C(=O)NCC(N)=O)NC(=O)[C@H](CC(C)C)NC(=O)[C@H](Cc4cnc[nH]4)NC(=O)[C@H](C(C)C)NC(=O)[C@@H]4CCCN4C(=O)[C@H](CC(N)=O)NC(=O)[C@@H](CCCNC(=N)N)NC(=O)[C@H](CC(=O)O)NC(=O)[C@@H]4CCCN4C(=O)CN(C)C3=O)cc2)cc1 [Example 253] ({CH2CO}-[Cha][Bip][Bip(4'-NHAc)][Sar]PD[dR]NPVHLCG-NH2; thioether N-13) | 50 to 200 nM
13 | CC(=O)Nc1ccc(-c2ccc(C[C@@H]3NC(=O)[C@H](Cc4ccc(-c5ccc(C(=O)O)cc5)cc4)NC(=O)[C@H](CC4CCCCC4)NC(=O)CSC[C@@H](C(=O)NCC(N)=O)NC(=O)[C@H](CC(C)C)NC(=O)[C@H](Cc4cccc(CN)c4)NC(=O)[C@H](C(C)C)NC(=O)[C@@H]4CCCN4C(=O)[C@H](C(C)C)NC(=O)[C@@H](CCCNC(=N)N)NC(=O)[C@H](CC(=O)O)NC(=O)[C@@H]4CCCN4C(=O)CN(C)C3=O)cc2)cc1 [Example 254] ({CH2CO}-[Cha][Bip(4'-COOH)][Bip(4'-NHAc)][Sar]PD[dR]VPV[Phe(3-CH2NH2)]LCG-NH2; thioether N-13) | 200 to 2000 nM
14 | CC(=O)Nc1ccc(-c2ccc(C[C@@H]3NC(=O)[C@H](Cc4ccc(-c5ccc(C(=O)O)cc5)cc4)NC(=O)[C@H](CC4CCCCC4)NC(=O)CSC[C@@H](C(=O)NCC(N)=O)NC(=O)[C@H](CC(C)C)NC(=O)[C@H](Cc4ccccc4C)NC(=O)[C@H](C(C)C)NC(=O)[C@@H]4CCCN4C(=O)[C@H](C(C)C)NC(=O)[C@@H](CCCNC(=N)N)NC(=O)[C@H](CC(=O)O)NC(=O)[C@@H]4CCCN4C(=O)CN(C)C3=O)cc2)cc1 [Example 255] ({CH2CO}-[Cha][Bip(4'-COOH)][Bip(4'-NHAc)][Sar]PD[dR]VPV[Phe(2-Me)]LCG-NH2; thioether N-13) | 50 to 200 nM
15 | CC[C@H](C)[C@@H]1NC(=O)[C@@H](CCCNC(=N)N)NC(=O)[C@H](CC(=O)O)NC(=O)[C@@H]2CCCN2C(=O)CN(C)C(=O)[C@H](Cc2ccc(-c3ccc(NC(C)=O)cc3)cc2)NC(=O)[C@H](Cc2ccc(-c3ccc(C(=O)O)cc3)cc2)NC(=O)[C@H](CC2CCCCC2)NC(=O)CSC[C@@H](C(=O)NCC(N)=O)NC(=O)[C@H](CC(C)C)NC(=O)[C@H](Cc2ccc(O)cc2)NC(=O)[C@H](C(C)C)NC(=O)[C@@H]2CCCN2C1=O [Example 256] ({CH2CO}-[Cha][Bip(4'-COOH)][Bip(4'-NHAc)][Sar]PD[dR]IPVYLCG-NH2; thioether N-13) | 50 to 200 nM
16 | CC[C@H](C)C1NC(=O)[C@@H](CCCNC(=N)N)NC(=O)[C@H](CC(=O)O)NC(=O)[C@H](Cc2ccc(O)cc2)NC(=O)CN(C)C(=O)[C@H](Cc2ccc(-c3ccc(NC(C)=O)cc3)cc2)NC(=O)[C@H](Cc2ccc(-c3ccccc3)cc2)NC(=O)[C@H](CN2CCOCC2)NC(=O)CSC[C@@H](C(=O)NCC(N)=O)NC(=O)[C@H](CC(C)C)NC(=O)[C@H](Cc2cccs2)NC(=O)[C@H](C(C)C)NC(=O)[C@@H]2CCCN2C1=O (stereo partly shown) [Example 258] ({CH2CO}-[Ala(morpholin-4-yl)][Bip][Bip(4'-NHAc)][Sar]YD[dR][ξIle]PV[2Thi]LCG-NH2; thioether N-13) | 50 to 200 nM
